Our source for the IC50 and Ki values is US9796680B2, “Glucocerebrosidase modulators and uses thereof” (Alectos Therapeutics Inc., priority 2013, dated 2017).

Structures are written as SMILES.

The target of this assay is GCase enzyme (Cerezyme, recombinant human GCase) (Homo sapiens, UniProt P04062, R534H).
GCase enzyme (Cerezyme, recombinant human GCase), sequence (P04062 40-536 R534H limits assumed): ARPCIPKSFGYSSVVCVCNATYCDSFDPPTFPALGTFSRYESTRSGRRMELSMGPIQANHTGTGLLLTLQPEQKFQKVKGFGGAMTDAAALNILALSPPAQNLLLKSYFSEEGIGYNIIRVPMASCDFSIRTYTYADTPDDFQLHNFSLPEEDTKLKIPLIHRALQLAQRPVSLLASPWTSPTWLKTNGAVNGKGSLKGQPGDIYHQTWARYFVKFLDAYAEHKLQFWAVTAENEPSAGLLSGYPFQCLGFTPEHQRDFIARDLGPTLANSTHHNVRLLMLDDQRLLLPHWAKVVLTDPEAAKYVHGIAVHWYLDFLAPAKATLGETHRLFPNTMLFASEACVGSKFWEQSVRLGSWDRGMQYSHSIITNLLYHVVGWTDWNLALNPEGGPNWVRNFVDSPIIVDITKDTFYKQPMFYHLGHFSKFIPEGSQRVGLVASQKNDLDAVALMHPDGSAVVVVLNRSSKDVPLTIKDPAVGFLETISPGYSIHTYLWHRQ
Procedure: Assay for Determination of Ki Values for Inhibition of GCase Activity
Various concentrations of test compounds were prepared in DMSO and then diluted into buffer consisting of 50 mM sodium phosphate 0.25% w/v sodium taurodexoycholate, pH 7.0. […] The reaction solution consisted of 25 μL of 6 mM 4-methylumbelliferone-β-D glucopyranoside in 10% DMSO in the same buffer, 12.5 μL of enzyme and 12.5 μL of various concentrations of test compound diluted in buffer. […] The reaction was initiated by addition of enzyme and allowed to proceed for 20 min at 37° C. to assess GCase activity. […] IC50 values were determined by fitting the data to a log [inhibitor concentration] versus response curve using GraphPad Prism.
Consider `CC1(C)NC[C@@H](O)[C@H](O)[C@H]1CO` [(3R,4R,5R)-5-(hydroxymethyl)-6,6-dimethylpiperidine-3,4-diol, reference compound], for which the IC50 stood at 3440 nM. `C[C@@H]1[C@@H](O)[C@H](O)CNC12CC2` [Example 1, (6R,7R,8S)-8-methyl-4-azaspiro[2.5]octane-6,7-diol]: the IC50 amounted to 3.7 nM and the Ki was 2.6 nM.

`OC[C@@H]1[C@@H](O)[C@H](O)CNC12CC2` [Example 2, (6R,7R,8R)-8-(hydroxymethyl)-4-azaspiro[2.5]octane-6,7-diol]: the IC50 is 13 nM and the Ki came out at 7 nM.

Consider `O[C@H]1[C@H](O)CNC2(CC2)[C@@H]1CF` [Example 3, (6R,7R,8S)-8-(fluoromethyl)-4-azaspiro[2.5]octane-6,7-diol], for which the IC50 stood at 6.2 nM and the Ki was 2.1 nM. `O[C@H]1[C@H](O)CNC2(CC2)[C@@H]1C(F)F` [Example 4, (6R,7R,8S)-8-(difluoromethyl)-4-azaspiro[2.5]octane-6,7-diol]: the IC50 came to 6.5 nM and the Ki stood at 8 nM. In the case of `O[C@H]1[C@H](O)CNC2(CC2)[C@@H]1CCl` [Example 5, (6R,7R,8S)-8-(chloromethyl)-4-azaspiro[2.5]octane-6,7-diol], the IC50 stood at 7.4 nM.

Regarding `COC[C@@H]1[C@@H](O)[C@H](O)CNC12CC2` [Example 6, (6R,7R,8R)-8-(methoxymethyl)-4-azaspiro[2.5]octane-6,7-diol], the IC50 was determined as 7.5 nM. Turning to `CO[C@@H]1[C@@H](O)[C@H](O)CNC12CC2` [Example 7, (6R,7S,8S)-8-methoxy-4-azaspiro[2.5]octane-6,7-diol], the IC50 is 32 nM. Consider `N#C[C@@H]1[C@@H](O)[C@H](O)CNC12CC2` [Example 8, (6R,7R,8R)-6,7-dihydroxy-4-azaspiro[2.5]octane-8-carbonitrile], for which the IC50 is 75 nM. The same measure, in the same setting: next, `O=C(O)[C@@H]1[C@@H](O)[C@H](O)CNC12CC2` [Example 9, (6R,7R,8S)-6,7-dihydroxy-4-azaspiro[2.5]octane-8-carboxylic acid]: 507 nM; `CNC(=O)[C@@H]1[C@@H](O)[C@H](O)CNC12CC2` [Example 10, (6R,7R,8S)-6,7-dihydroxy-N-methyl-4-azaspiro[2.5]octane-8-carboxamide]: 264 nM.

For `O=C(NC1CC1)[C@@H]1[C@@H](O)[C@H](O)CNC12CC2` [Example 11, (6R,7R,8S)-N-cyclopropyl-6,7-dihydroxy-4-azaspiro[2.5]octane-8-carboxamide], the IC50 stood at 462 nM. Take `CC[C@@H]1[C@@H](O)[C@H](O)CNC12CC2` [Example 12, (6R,7R,8S)-8-ethyl-4-azaspiro[2.5]octane-6,7-diol]: the IC50 is 6.3 nM. On the same count and under the same terms, next, `CCC[C@@H]1[C@@H](O)[C@H](O)CNC12CC2` [Example 13, (6R,7R,8S)-8-propyl-4-azaspiro[2.5]octane-6,7-diol]: 15 nM; `O[C@H]1[C@H](O)CNC2(CC2)[C@@H]1CCF` [Example 14, (6R,7R,8S)-8-(2-fluoroethyl)-4-azaspiro[2.5]octane-6,7-diol]: 27 nM. Turning to `C=C[C@@H]1[C@@H](O)[C@H](O)CNC12CC2` [Example 16, (6R,7R,8S)-8-vinyl-4-azaspiro[2.5]octane-6,7-diol], the IC50 amounted to 6.8 nM and the Ki came out at 7.6 nM. With `O[C@H]1[C@H](O)CNC2(CC2)[C@@H]1/C=C\F` [Example 17, (6R,7R,8S)-8-((Z)-2-fluorovinyl)-4-azaspiro[2.5]octane-6,7-diol], the IC50 was found to be 36 nM. The same measure, in the same setting: to `O[C@H]1[C@H](O)CNC2(CC2)[C@@H]1/C=C/F` [Example 18, (6R,7R,8S)-8-((E)-2-fluorovinyl)-4-azaspiro[2.5]octane-6,7-diol] belongs 20 nM; to `O[C@H]1[C@H](O)CNC2(CC2)[C@@H]1C=C(F)F` [Example 19, (6R,7R,8S)-8-(2,2-difluorovinyl)-4-azaspiro[2.5]octane-6,7-diol], 75 nM. `C#C[C@@H]1[C@@H](O)[C@H](O)CNC12CC2` [Example 20, (6R,7R,8S)-8-ethynyl-4-azaspiro[2.5]octane-6,7-diol]: the IC50 amounted to 13 nM and the Ki came out at 7.9 nM.

In the case of `CC#C[C@@H]1[C@@H](O)[C@H](O)CNC12CC2` [Example 21, (6R,7R,8S)-8-(prop-1-yn-1-yl)-4-azaspiro[2.5]octane-6,7-diol], the IC50 was 9.7 nM and the Ki was found to be 6.7 nM. With `CCC#C[C@@H]1[C@@H](O)[C@H](O)CNC12CC2` [Example 22, (6R,7R,8S)-8-(but-1-yn-1-yl)-4-azaspiro[2.5]octane-6,7-diol], the IC50 amounted to 2.4 nM. Turning to `CCCC#C[C@@H]1[C@@H](O)[C@H](O)CNC12CC2` [Example 23, (6R,7R,8S)-8-(pent-1-yn-1-yl)-4-azaspiro[2.5]octane-6,7-diol], the IC50 amounted to 6.7 nM. With `OCC#C[C@@H]1[C@@H](O)[C@H](O)CNC12CC2` [Example 24, (6R,7R,8S)-8-(3-hydroxyprop-1-yn-1-yl)-4-azaspiro[2.5]octane-6,7-diol], the IC50 was determined as 17 nM.

With `O[C@H]1[C@H](O)CNC2(CC2)[C@@H]1C#CCF` [Example 25, (6R,7R,8S)-8-(3-fluoroprop-1-yn-1-yl)-4-azaspiro[2.5]octane-6,7-diol], the IC50 worked out at 16 nM and the Ki came out at 15 nM.

`O[C@H]1[C@H](O)CNC2(CC2)[C@@H]1C#CC(F)F` [Example 26, (6R,7R,8S)-8-(3,3-difluoroprop-1-yn-1-yl)-4-azaspiro[2.5]octane-6,7-diol]: the IC50 was 22 nM and the Ki is 17 nM. As for `O[C@H]1[C@H](O)CNC2(CC2)[C@@H]1C#CCCF` [Example 27, (6R,7R,8S)-8-(4-fluorobut-1-yn-1-yl)-4-azaspiro[2.5]octane-6,7-diol], the IC50 came out at 2.5 nM.

On to `O[C@H]1[C@H](O)CNC2(CC2)[C@@H]1C#CCC(F)F` [Example 28, (6R,7R,8S)-8-(4,4-difluorobut-1-yn-1-yl)-4-azaspiro[2.5]octane-6,7-diol], for which the IC50 is 11 nM.

Usually IC50 stands for the point on the concentration scale where inhibition reaches its midpoint. Broadly, the Ki is the equilibrium dissociation constant of an inhibitor or competing ligand from its target.
